Assay results published in patent US20140179726A1, “GUT MICROFLORA AS BIOMARKERS FOR THE PROGNOSIS OF CIRRHOSIS AND BRAIN DYSFUNCTION” (priority 2011, published 2014).

Legend:
stool microbiome = assay: Stool microbiome by multitag pyrosequencing, family level, within HE group (Example 1); type: in vivo, human; parameters: normalized abundance of Streptococcaceae: unit not given here; details: HE patients
Experimental: Interrogation of the Microbiome: Stool was collected and DNA extracted for microbiome analysis within 24 hours of collection from patients and controls using published techniques (29). We first routinely use Length Heterogeneity PCR (LH-PCR) fingerprinting of the 16S rRNA to rapidly survey our samples and standardize the community amplification. We then interrogated the microbial taxa associated with the gut fecal microbiome using Multitag Pyrosequencing (MTPS). This technique allows the rapid sequencing of multiple samples at one time yielding thousands of sequence reads per sample (12).
Microbiome Community Fingerprinting: LH-PCR was done to standardize the community analysis as previously published (21). Briefly, total genomic DNA was extracted from tissue using Bio101 kit from MP Biomedicals Inc., Montreal, Quebec as per the manufacturer's instructions. About 10 ng of extracted DNA was amplified by PCR using a fluorescently labeled forward primer 27F (5’-(6FAM) AGAGTTTGATCCTGGCTCA G-3′, SEQ ID NO: 1) and unlabeled reverse primer 355R′ (5′-GCTGCCTCCCGTAGGAGT-3′, SEQ ID NO: 2). Both primers are universal primers for Bacteria (22). The LH-PCR products were diluted according to their intensity on agarose gel electrophoresis and mixed with ILS-600 size standards (Promega) and HiDi Formamide (Applied Biosystems, Foster City, Calif.). The diluted samples were then separated on a ABI 3130x1 fluorescent capillary sequencer (Applied Biosystems, Foster City, Calif.) and processed using the Genemapper™ software package (Applied Biosystems, Foster City, Calif.). Normalized peak areas were calculated using a custom PERL script and OTUs constituting less than 1% of the total community from each sample were eliminated from the analysis to remove the variable low abundance components within the communities.
MTPS: We employed the MTPS process to characterize the microbiome from the fecal samples. Specifically, we have generated a set of 96 emulsion PCR fusion primers that contain the 454 emulsion PCR linkers on the 27F and 355R primers and a different 8 base “barcode” between the A adapter and 27F primer. Thus, each fecal sample was amplified with unique bar-coded forward 16S rRNA primers and then up to 96 samples were pooled and subjected to emulsion PCR and pyrosequenced using a GS-FLX pyrosequencer (Roche). Data from each pooled sample were “deconvoluted” by sorting the sequences into bins based on the barcodes using custom PERL scripts. Thus, we were able to normalize each sample by the total number of reads from each barcode. We have noted that ligating tagged primers to PCR amplicons distorts the abundances of the communities and thus it is critical to incorporate the tags during the original amplification step (12). Several groups have employed various barcoding strategies to analyze multiple samples and this strategy is now well accepted (38).
RDP10 Analysis: We identified the taxa present in each sample using the Bayesian analysis tool in Version 10 of the Ribosomal Database Project (RDP10). The abundances of the bacterial identifications were then normalized using a custom PERL script and taxa present at >1% of the community were tabulated. We chose this cutoff because of our a priori assumption that taxa present in <1% of the community vary between individuals and have minimal contribution to the functionality of that community and 2,000 reads per sample will only reliably identify community components that are greater than 1% in abundance (13).
The cirrhosis group was divided into those with and without HE and were compared. Data from the significant variables between HE and non-HE groups were combined in a MANOVA model. Within HE patients, comparison was made between those on lactulose alone to those with lactulose and rifaximin. Microbiome abundance comparisons between groups were made at a family level using non-parametric tests. […]

[1] = test system: cirrhotic patients with HE; assay: Cognitive performance, HE patients on rifaximin vs only on lactulose (Example 2); type: in vivo, human
Text: Patients with cirrhosis with or without HE were included for a one-time visit. We excluded patients with a current infection (defined by elevated white blood cell (WBC) count, clinical suspicion or fever), variceal bleeding within the last 4 weeks, on gut-absorbable antibiotics, or had alcohol or illicit drug intake within 3 months (checked by drug and alcohol screens). […] Patients in the “HE” group had suffered at least one HE episode within the last 3 months and were currently controlled on lactulose alone or lactulose with rifaximin.
During the visit, the subjects underwent a physical examination and measurement of body mass index (BMI), detailed analysis of medical records including current medications, a detailed dietary recall and collection of stool and blood samples. All subjects underwent a mini-mental status exam and only those scoring above 25 were included in the full study (14). Subsequently a recommended cognitive battery consisting of the following tests was administered; (a) Psychometric hepatic encephalopathy score (PHES), (b) block design test (subjects are required to replicate designs with given blocks in a timed manner) and (c) Inhibitory control test [ICT: Subjects are instructed to respond to alternating presentations of X and Y on the screen (targets) while inhibiting response when X and Y are not alternating (lures)] (5, 41). The PHES consists of number connection test-A/B (subjects are asked to “join the dots” between numbers or numbers and alphabets in a timed fashion), digit symbol (subjects are required to copy corresponding figures from a given list within 2 minutes), line drawing (time) and (errors): subjects are required to trace a line between two parallel lines and balance between speed and accuracy. Time required and the number of times the subject's line strays beyond the marked lines (errors) are recorded] and serial dotting (subjects are asked to dot the center of a group of blank circles)]. The PHES is a validated battery for cognitive dysfunction in cirrhosis and tests for psychomotor speed, visuo-motor coordination, attention and set-shifting(32). Block design tests for visuo-motor coordination. A high score on block, digit symbol and ICT targets and a low score on the rest indicate good performance.
Statistical analysis: Cirrhotics with HE were compared to those without HE with respect to BMI, inflammatory markers, cognitive performance and microbiome constituents. Unpaired t-tests were used to compare demographics, cognitive tests and inflammatory markers. Since the microbiome constituents tend to be sparse and non-parametrically distributed, we used Metastats to compare microbiome between stool and mucosa of patients with and without HE (42). Metastats performs statistical analysis (to investigate metagenomic differences) along with biomarker discovery (to evaluate specific features underlying these differences) based on repeated t statistics and Fisher's tests on random permutations (34). We also performed Metastats analysis between the mucosal microbiome compared to the stool microbiome in patients with HE and without HE and those in HE on or not on rifaximin. Principal Component Analysis (PCO) on the abundance tables and weighted and unweighted UNIFRAC analysis using the QIIME pipeline were also performed (22, 25). Subsequently, we analyzed the correlations between MELD score, BMI, inflammatory markers, cognitive tests and microbiome constituents using a correlation network analysis obtained through a customized statistical script in R (7) using a P-value cutoff of <0.05 and an R value >0.5 to identify the most significant relationships (4, 16).

Question: With OC[C@H]1O[C@@H](O[C@@H]2[C@@H](CO)OC(O)(CO)[C@H]2O)[C@H](O)[C@@H](O)[C@H]1O (mixture of isomers) [lactulose] as the molecule, how does the “normalized abundance of Alcaligenaceae” value (stool microbiome) read?
Answer: Its value is 12.6±9%.

Question: And the “normalized abundance of Bacteroidaceae” value (stool microbiome)?
Answer: The value was 39±35%.

Question: And the “normalized abundance of Enterobacteriaceae” value (stool microbiome)?
Answer: The value was 26±40%.

Question: What about the “normalized abundance of Lactobacillaceae” value (stool microbiome) of the same molecule?
Answer: Its value is 2±1%.

Question: What about the “normalized abundance of Porphyromonadaceae” value (stool microbiome) of the same molecule?
Answer: Its value is 14±21%.

Question: And the “normalized abundance of Prevotellaceae” value (stool microbiome)?
Answer: Its value is 18±25%.

Question: And the “normalized abundance of Ruminococcaceae” value (stool microbiome)?
Answer: Its value is 17±22%.

Question: And the “normalized abundance of Streptococcaceae” value (stool microbiome)?
Answer: The value was 4±10.

Question: What about the “normalized abundance of Veillonellaceae” value (stool microbiome) of the same molecule?
Answer: Its value is 15±13%.

Question: And the block design ([1]; high = good)?
Answer: The block design was 19.8 score.

Question: What about the digit symbol ([1]; high = good) of the same molecule?
Answer: Its digit symbol is 38 score.

Question: What about the targets ([1]; high = good) of the same molecule?
Answer: The targets was 90%.

Question: What about the line tracing errors ([1]; high = poor) of the same molecule?
Answer: Its line tracing errors is 44.9.

Question: What about the line tracing time ([1]; high = poor) of the same molecule?
Answer: The line tracing time was 127.3.

Question: What about the lures ([1]; high = poor) of the same molecule?
Answer: The lures was 16.9 responses.

Question: And the “number connection-A” value ([1]; high = poor)?
Answer: Its value is 52.25 s.

Question: And the “number connection-B” value ([1]; high = poor)?
Answer: Its value is 145.8 s.

Question: And the serial dotting ([1]; high = poor)?
Answer: The serial dotting was 84.0 s.
